Data from the NIST ThermoML archive (doi:10.1021/acs.jced.8b00662).
Numbers after ± are expanded uncertainties.

Assay: xn = mol fraction of the nth substance listed
Settings: 100 kPa, Liquid; for viscosity: Falling or rolling sphere viscometry; for mass density: Vibrating tube method

Structure (SMILES): CC(C)C1CCCCC1 [(1-methylethyl)cyclohexane] + c1ccc2c(c1)CCCC2
- viscosity (293.15 K, x2 = 0): 1.093 ± 0.023 mPa·s
- viscosity (293.15 K, x2 = 0.0995): 1.129 ± 0.024 mPa·s
- viscosity (293.15 K, x2 = 0.1995): 1.195 ± 0.026 mPa·s
- viscosity (293.15 K, x2 = 0.299): 1.258 ± 0.027 mPa·s
- viscosity (293.15 K, x2 = 0.4004): 1.334 ± 0.028 mPa·s
- viscosity (293.15 K, x2 = 0.5006): 1.436 ± 0.031 mPa·s
- viscosity (293.15 K, x2 = 0.5995): 1.543 ± 0.033 mPa·s
- viscosity (293.15 K, x2 = 0.7015): 1.671 ± 0.036 mPa·s
- viscosity (293.15 K, x2 = 0.7991): 1.823 ± 0.039 mPa·s
- viscosity (293.15 K, x2 = 0.9006): 2.008 ± 0.043 mPa·s
- mass density (293.15 K, x2 = 0): 802.14 ± 0.97 kg/m3
- mass density (293.15 K, x2 = 0.0995): 816.67 ± 0.99 kg/m3
- mass density (293.15 K, x2 = 0.1995): 831.75 ± 1 kg/m3
- mass density (293.15 K, x2 = 0.299): 847.23 ± 1 kg/m3
- mass density (293.15 K, x2 = 0.4004): 863.44 ± 1 kg/m3
- mass density (293.15 K, x2 = 0.5006): 879.87 ± 1.1 kg/m3
- mass density (293.15 K, x2 = 0.5995): 896.5 ± 1.1 kg/m3
- mass density (293.15 K, x2 = 0.7015): 914.1 ± 1.1 kg/m3
- mass density (293.15 K, x2 = 0.7991): 931.39 ± 1.1 kg/m3
- mass density (293.15 K, x2 = 0.9006): 949.99 ± 1.1 kg/m3
- viscosity (298.15 K, x2 = 0): 1.016 ± 0.022 mPa·s
- viscosity (298.15 K, x2 = 0.0995): 1.053 ± 0.023 mPa·s
- viscosity (298.15 K, x2 = 0.1995): 1.108 ± 0.024 mPa·s
- viscosity (298.15 K, x2 = 0.299): 1.165 ± 0.025 mPa·s
- viscosity (298.15 K, x2 = 0.4004): 1.233 ± 0.026 mPa·s
- viscosity (298.15 K, x2 = 0.5006): 1.324 ± 0.028 mPa·s
- viscosity (298.15 K, x2 = 0.5995): 1.416 ± 0.03 mPa·s
- viscosity (298.15 K, x2 = 0.7015): 1.531 ± 0.033 mPa·s
- viscosity (298.15 K, x2 = 0.7991): 1.662 ± 0.035 mPa·s
- viscosity (298.15 K, x2 = 0.9006): 1.824 ± 0.039 mPa·s
- mass density (298.15 K, x2 = 0): 798.24 ± 0.97 kg/m3
- mass density (298.15 K, x2 = 0.0995): 812.77 ± 0.99 kg/m3
- mass density (298.15 K, x2 = 0.1995): 827.85 ± 1 kg/m3
- mass density (298.15 K, x2 = 0.299): 843.32 ± 1 kg/m3
- mass density (298.15 K, x2 = 0.4004): 859.53 ± 1 kg/m3
- mass density (298.15 K, x2 = 0.5006): 875.96 ± 1.1 kg/m3
- mass density (298.15 K, x2 = 0.5995): 892.57 ± 1.1 kg/m3
- mass density (298.15 K, x2 = 0.7015): 910.16 ± 1.1 kg/m3
- mass density (298.15 K, x2 = 0.7991): 927.44 ± 1.1 kg/m3
- mass density (298.15 K, x2 = 0.9006): 946.04 ± 1.1 kg/m3
- viscosity (303.15 K, x2 = 0): 0.947 ± 0.02 mPa·s
- viscosity (303.15 K, x2 = 0.0995): 0.98 ± 0.021 mPa·s
- viscosity (303.15 K, x2 = 0.1995): 1.03 ± 0.022 mPa·s
- viscosity (303.15 K, x2 = 0.299): 1.08 ± 0.023 mPa·s
- viscosity (303.15 K, x2 = 0.4004): 1.143 ± 0.024 mPa·s
- viscosity (303.15 K, x2 = 0.5006): 1.225 ± 0.026 mPa·s
- viscosity (303.15 K, x2 = 0.5995): 1.305 ± 0.028 mPa·s
- viscosity (303.15 K, x2 = 0.7015): 1.407 ± 0.03 mPa·s
- viscosity (303.15 K, x2 = 0.7991): 1.521 ± 0.032 mPa·s
- viscosity (303.15 K, x2 = 0.9006): 1.667 ± 0.035 mPa·s
- mass density (303.15 K, x2 = 0): 794.34 ± 0.96 kg/m3
- mass density (303.15 K, x2 = 0.0995): 808.86 ± 0.98 kg/m3
- mass density (303.15 K, x2 = 0.1995): 823.93 ± 1 kg/m3
- mass density (303.15 K, x2 = 0.299): 839.4 ± 1 kg/m3
- mass density (303.15 K, x2 = 0.4004): 855.61 ± 1 kg/m3
- mass density (303.15 K, x2 = 0.5006): 872.03 ± 1.1 kg/m3
- mass density (303.15 K, x2 = 0.5995): 888.63 ± 1.1 kg/m3
- mass density (303.15 K, x2 = 0.7015): 906.22 ± 1.1 kg/m3
- mass density (303.15 K, x2 = 0.7991): 923.49 ± 1.1 kg/m3
- mass density (303.15 K, x2 = 0.9006): 942.08 ± 1.1 kg/m3
- viscosity (308.15 K, x2 = 0): 0.886 ± 0.019 mPa·s
- viscosity (308.15 K, x2 = 0.0995): 0.916 ± 0.02 mPa·s
- viscosity (308.15 K, x2 = 0.1995): 0.961 ± 0.021 mPa·s
- viscosity (308.15 K, x2 = 0.299): 1.007 ± 0.022 mPa·s
- viscosity (308.15 K, x2 = 0.4004): 1.064 ± 0.023 mPa·s
- viscosity (308.15 K, x2 = 0.5006): 1.137 ± 0.024 mPa·s
- viscosity (308.15 K, x2 = 0.5995): 1.208 ± 0.026 mPa·s
- viscosity (308.15 K, x2 = 0.7015): 1.3 ± 0.028 mPa·s
- viscosity (308.15 K, x2 = 0.7991): 1.404 ± 0.03 mPa·s
- viscosity (308.15 K, x2 = 0.9006): 1.532 ± 0.033 mPa·s
- mass density (308.15 K, x2 = 0): 790.43 ± 0.96 kg/m3
- mass density (308.15 K, x2 = 0.0995): 804.95 ± 0.98 kg/m3
- mass density (308.15 K, x2 = 0.1995): 820.02 ± 0.99 kg/m3
- mass density (308.15 K, x2 = 0.299): 835.48 ± 1 kg/m3
- mass density (308.15 K, x2 = 0.4004): 851.68 ± 1 kg/m3
- mass density (308.15 K, x2 = 0.5006): 868.1 ± 1.1 kg/m3
- mass density (308.15 K, x2 = 0.5995): 884.69 ± 1.1 kg/m3
- mass density (308.15 K, x2 = 0.7015): 902.28 ± 1.1 kg/m3
- mass density (308.15 K, x2 = 0.7991): 919.54 ± 1.1 kg/m3
- mass density (308.15 K, x2 = 0.9006): 938.12 ± 1.1 kg/m3
- viscosity (313.15 K, x2 = 0): 0.831 ± 0.018 mPa·s
- viscosity (313.15 K, x2 = 0.0995): 0.859 ± 0.018 mPa·s
- viscosity (313.15 K, x2 = 0.1995): 0.9 ± 0.019 mPa·s
- viscosity (313.15 K, x2 = 0.299): 0.942 ± 0.02 mPa·s
- viscosity (313.15 K, x2 = 0.4004): 0.994 ± 0.021 mPa·s
- viscosity (313.15 K, x2 = 0.5006): 1.06 ± 0.023 mPa·s
- viscosity (313.15 K, x2 = 0.5995): 1.124 ± 0.024 mPa·s
- viscosity (313.15 K, x2 = 0.7015): 1.207 ± 0.026 mPa·s
- viscosity (313.15 K, x2 = 0.7991): 1.3 ± 0.028 mPa·s
- viscosity (313.15 K, x2 = 0.9006): 1.413 ± 0.03 mPa·s
- mass density (313.15 K, x2 = 0): 786.51 ± 0.95 kg/m3
- mass density (313.15 K, x2 = 0.0995): 801.03 ± 0.97 kg/m3
- mass density (313.15 K, x2 = 0.1995): 816.1 ± 0.99 kg/m3
- mass density (313.15 K, x2 = 0.299): 831.55 ± 1 kg/m3
- mass density (313.15 K, x2 = 0.4004): 847.75 ± 1 kg/m3
- mass density (313.15 K, x2 = 0.5006): 864.17 ± 1 kg/m3
- mass density (313.15 K, x2 = 0.5995): 880.76 ± 1.1 kg/m3
- mass density (313.15 K, x2 = 0.7015): 898.34 ± 1.1 kg/m3
- mass density (313.15 K, x2 = 0.7991): 915.59 ± 1.1 kg/m3
- mass density (313.15 K, x2 = 0.9006): 934.17 ± 1.1 kg/m3
- viscosity (318.15 K, x2 = 0): 0.782 ± 0.017 mPa·s
- viscosity (318.15 K, x2 = 0.0995): 0.798 ± 0.017 mPa·s
- viscosity (318.15 K, x2 = 0.1995): 0.837 ± 0.018 mPa·s
- viscosity (318.15 K, x2 = 0.299): 0.876 ± 0.019 mPa·s
- viscosity (318.15 K, x2 = 0.4004): 0.925 ± 0.02 mPa·s
- viscosity (318.15 K, x2 = 0.5006): 0.986 ± 0.021 mPa·s
- viscosity (318.15 K, x2 = 0.5995): 1.045 ± 0.022 mPa·s
- viscosity (318.15 K, x2 = 0.7015): 1.121 ± 0.024 mPa·s
- viscosity (318.15 K, x2 = 0.7991): 1.206 ± 0.026 mPa·s
- viscosity (318.15 K, x2 = 0.9006): 1.309 ± 0.028 mPa·s
